Data reported in article PMC9643456, “Matching amino acids membrane preference profile to improve activity of antimicrobial peptides” (Communications Biology, 2022).
≈ marks a conversion by molar mass, not a printed value. Square brackets hold non-standard residues; d marks the D form. Ends that are not written are not given here. Peptide text beside a SMILES is read from it.

What was measured:
[1] = test system: MDR A. baumannii; test: microbe, parasite or virus in culture; conditions: CLSI broth microdilution; CAMHB with 50 mg/L Ca2+, 10 mg/L Mg2+; 5 × 10^5 CFU/ml; 18 h 37 °C; triplicate; strain ATCC BAA-1605
Excerpt: (§1) MDR Pseudomonas aeruginosa (CCARM 2180) was purchased from the Culture Collection of Antimicrobial Resistance Microbes (Seoul, Republic of Korea). MDR Acinetobacter baumannii (ATCC BAA-1605) and MDR Enterococcus faecalis (ATCC 51575) were purchased from the American Type Culture Collection (Manassas, VA, USA). MDR Staphylococcus aureus (KCCM 40510) was purchased from the Korean Culture Center of Microorganisms (Seoul, Republic of Korea). S. aureus (KCTC 1621) was purchased from the Korean Collection for Type Cultures. A. baumannii (KCCM 40203) was purchased from the Korean Culture Center of Microorganisms (Seoul, Republic of Korea).
(§2) To assess antimicrobial activity, the MIC50 and MIC90 were measured using broth microdilution following CLSI guidelines. […] Each experiment was performed in triplicate. Meropenem (Sigma, Darmstadt, Germany) and colistin were used as control antibiotics. Cation-adjusted Mueller–Hinton broth (CAMHB) (Becton, Dickinson and Company, Franklin Lakes, USA) with supplied calcium (50 mg/L) and magnesium (10 mg/L) was used for the CLSI-test condition. Bacteria in midlog phase and peptides were separately diluted in CAMHB. The bacteria and peptide solutions were then mixed in 96-well polyethylene plates (SPL, Gyeonggi-do, Korea) and incubated for 18 h at 37 °C. The final concentration for bacteria was 5 × 10^5 CFU/ml. […] The MIC was defined to be the lowest concentration of peptide without visible turbidity by comparing with control antibiotics with the unaided eye. […] Each experiment was performed in triplicate. MICs in albumin and acetic acid solutions were measured using the same protocol but with 0.2% bovine serum albumin (Bovogen, Keilor, Australia), 0.01% acetic acid (Merck, New Jersey, USA), and CAMHB with both calcium and magnesium. In addition, MICs used in the antibiotic resistance acquisition test, the outer–inner membrane permeation test, and the transmembrane potential test and for FE-SEM were individually determined. The final bacterial concentrations used were as follows: for resistance acquisition, optical density (OD) 0.01; for outer–inner membrane permeability assays (LB), OD 0.1; for the transmembrane potential test, 1 × 10^8 CFU/ml (OD 0.171); […]. Inhibitory activity unidentifiable by direct observation was determined by counting the CFUs. Each experiment was performed at least twice.

[2] = test system: MDR P. aeruginosa; test: microbe, parasite or virus in culture; conditions: CLSI broth microdilution; CAMHB with 50 mg/L Ca2+, 10 mg/L Mg2+; 5 × 10^5 CFU/ml; 18 h 37 °C; no visible turbidity; triplicate; strain CCARM 2180
Excerpt: as §1, §2

[3] = test system: MDR S. aureus; test: microbe, parasite or virus in culture; conditions: CLSI broth microdilution; CAMHB with 50 mg/L Ca2+, 10 mg/L Mg2+; 5 × 10^5 CFU/ml; 18 h 37 °C; triplicate; strain KCCM 40510
Excerpt: as §1, §2

[4] = test system: human red blood cells; test: Hemolytic activity; assay type: cell-based; conditions: red cells of human, 18 h
Experimental: Human red blood cells (Zenbio, North Carolina, USA) and peptides were separately diluted in PBS (blood concentration, 8%). The blood cell and peptide solutions were then mixed in 96-well polyethylene plates (SPL, Gyeonggi-do, Korea) and incubated for 18 h at 37 °C. The final concentration of human red blood cells was 4%, while peptide concentrations were 100 μM, 50 μM, 25 μM, 12.5 μM, 6.25 μM, 3.13 μM, 1.56 μM, and 0.78 μM. After incubation, the plates were centrifuged at 1000 × g for 5 min, and the supernatants were transferred to 96-well polyethylene plates. Hemolysis levels were determined by measuring the absorbance at 540 nm with a SpectraMax plate spectrophotometer (Molecular Devices, California, USA). Control samples were treated with 1% Triton X-100 (for 100% hemolysis) or solution with 0 μM peptide (for 0% hemolysis) and melittin (for positive control). Each experiment was performed in triplicate.

Compound	Minimum inhibitory concentrations, MDR A. baumannii [1]	Minimum inhibitory concentrations, MDR P. aeruginosa [2]	Minimum inhibitory concentrations, MDR S. aureus [3]	Hemolysis percent, 25 μM [4]	Hemolysis percent, 50 μM [4]	Hemolysis percent, 100 μM [4]
CC[C@@H](C)[C@@H](NC(=O)[C@@H](Cc1c[nH]c2ccccc12)NC(=O)[C@H](NC(=O)[C@@H](CC(C)C)NC(=O)[C@@H](Cc1c[nH]c2ccccc12)NC(=O)[C@H](N)CCCCN)C(C)C)C(=O)N[C@H](Cc1c[nH]c2ccccc12)C(=O)N[C@H](CCCNC(=N)N)C(=O)N[C@H](CCCNC(=N)N)C(=O)N[C@H](CCCNC(=N)N)C(N)=O [WCopW35] (H-[dK][dW][dL][dV][dW][dI][dW][dR][dR][dR]-NH2)	0.63 µM (≈ 0.944 µg/mL)	2.5 µM (≈ 3.74 µg/mL)	0.63 µM (≈ 0.944 µg/mL)	1.18 ±0.34%	2.71 ±0.63%	6.07 ±1.01%
CC(C)[C@@H](NC(=O)[C@H](N)Cc1c[nH]c2ccccc12)C(=O)N[C@@H](C(=O)N[C@@H](C(=O)N[C@@H](C(=O)N[C@H](Cc1c[nH]c2ccccc12)C(=O)N[C@H](CCCNC(=N)N)C(=O)N[C@H](CCCNC(=N)N)C(=O)N[C@H](CCCNC(=N)N)C(N)=O)C(C)C)C(C)C)C(C)C [WCopW44] (H-[dW][dV][dV][dV][dV][dW][dR][dR][dR]-NH2)	2.5 µM (≈ 3.14 µg/mL)	–	1.25 µM (≈ 1.57 µg/mL)	0.11 ±0.03%	0.87 ±0.36%	4.48 ±1.01%
WLLWIALRKKR-NH2 [WCopW1]	–	> 20 µM	–	7.03%	10.46%	19.40%
CC[C@@H](C)[C@@H](NC(=O)[C@@H](Cc1c[nH]c2ccccc12)NC(=O)[C@H](NC(=O)[C@@H](CC(C)C)NC(=O)[C@@H](Cc1c[nH]c2ccccc12)NC(=O)[C@H](N)CC(=O)O)C(C)C)C(=O)N[C@H](Cc1c[nH]c2ccccc12)C(=O)N[C@H](CCCNC(=N)N)C(=O)N[C@H](CCCNC(=N)N)C(=O)N[C@H](CCCNC(=N)N)C(N)=O [WCopW36] (H-[dD][dW][dL][dV][dW][dI][dW][dR][dR][dR]-NH2)	–	–	1.25 µM (≈ 1.86 µg/mL)	4.03 ±0.40%	7.48 ±0.90%	9.86 ±1.62%
CC(C)C[C@@H](NC(=O)[C@H](N)Cc1c[nH]c2ccccc12)C(=O)N[C@@H](C(=O)N[C@H](Cc1c[nH]c2ccccc12)C(=O)N[C@H](CCCCN)C(=O)N[C@H](Cc1c[nH]c2ccccc12)C(=O)N[C@H](CCCNC(=N)N)C(=O)N[C@H](CCCNC(=N)N)C(=O)N[C@H](CCCNC(=N)N)C(N)=O)C(C)C [WCopW37] (H-[dW][dL][dV][dW][dK][dW][dR][dR][dR]-NH2)	2.5 µM (≈ 3.46 µg/mL)	–	5 µM (≈ 6.92 µg/mL)	0.13 ±0.02%	0.08 ±0.01%	0.16 ±0.03%
WLLWIALRKKR-NH2 [WCopW2]	–	–	–	8.19%	11.43%	23.10%
CC[C@@H](C)[C@@H](NC(=O)[C@@H](Cc1c[nH]c2ccccc12)NC(=O)[C@@H](CC(C)C)NC(=O)[C@H](N)CC(C)C)C(=O)N[C@H](C)C(=O)N[C@H](CC(C)C)C(=O)N[C@H](CCCNC(=N)N)C(=O)N[C@H](CCCCN)C(=O)N[C@H](CCCCN)C(=O)N[C@H](CCCNC(=N)N)C(N)=O [WCopW11] (H-[dL][dL][dW][dI][dA][dL][dR][dK][dK][dR]-NH2)	–	–	–	0.94%	1.02%	1.08%
CC(C)C[C@@H](NC(=O)[C@H](N)Cc1c[nH]c2ccccc12)C(=O)N[C@@H](C(=O)N[C@H](Cc1c[nH]c2ccccc12)C(=O)N[C@H](CO)C(=O)N[C@H](Cc1c[nH]c2ccccc12)C(=O)N[C@H](CCCNC(=N)N)C(=O)N[C@H](CCCNC(=N)N)C(=O)N[C@H](CCCNC(=N)N)C(N)=O)C(C)C [WCopW39] (H-[dW][dL][dV][dW][dS][dW][dR][dR][dR]-NH2)	–	–	–	0.09%	0.06%	0.36%
CC[C@@H](C)[C@@H](NC(=O)[C@@H](Cc1c[nH]c2ccccc12)NC(=O)[C@H](NC(=O)[C@@H](CC(C)C)NC(=O)[C@H](N)Cc1c[nH]c2ccccc12)C(C)C)C(=O)N[C@H](Cc1ccc(O)cc1)C(=O)N[C@H](CCCNC(=N)N)C(=O)N[C@H](CCCNC(=N)N)C(=O)N[C@H](CCCNC(=N)N)C(N)=O [WCopW33] (H-[dW][dL][dV][dW][dI][dY][dR][dR][dR]-NH2)	–	–	–	3.49%	6.35%	9.93%
CC[C@@H](C)[C@@H](NC(=O)[C@@H](Cc1c[nH]c2ccccc12)NC(=O)[C@H](NC(=O)[C@@H](CC(C)C)NC(=O)[C@H](N)Cc1c[nH]c2ccccc12)C(C)C)C(=O)N[C@H](Cc1c[nH]c2ccccc12)C(=O)N[C@H](CCCNC(=N)N)C(=O)N[C@H](CCCNC(=N)N)C(=O)N[C@H](CCC(=O)O)C(=O)N[C@H](CCC(N)=O)C(N)=O [WCopW34] (H-[dW][dL][dV][dW][dI][dW][dR][dR][dE][dQ]-NH2)	–	–	–	-0.18%	-0.17%	-0.14%
CC[C@@H](C)[C@@H](NC(=O)[C@@H](Cc1c[nH]c2ccccc12)NC(=O)[C@H](NC(=O)[C@@H](CC(C)C)NC(=O)[C@H](N)Cc1c[nH]c2ccccc12)C(C)C)C(=O)N[C@H](Cc1c[nH]c2ccccc12)C(=O)N[C@H](CCC(N)=O)C(=O)N[C@H](CCCNC(=N)N)C(=O)N[C@H](CCCNC(=N)N)C(=O)N[C@H](CCCNC(=N)N)C(N)=O [WCopW30] (H-[dW][dL][dV][dW][dI][dW][dQ][dR][dR][dR]-NH2)	–	–	–	0.32%	2.74%	4.92%
CC[C@@H](C)[C@@H](NC(=O)[C@@H](Cc1c[nH]c2ccccc12)NC(=O)[C@H](NC(=O)[C@@H](CC(C)C)NC(=O)[C@H](N)Cc1c[nH]c2ccccc12)C(C)C)C(=O)N[C@H](Cc1c[nH]c2ccccc12)C(=O)N[C@H](CCCNC(=N)N)C(=O)N[C@H](CCCNC(=N)N)C(=O)N[C@H](CCC(N)=O)C(=O)N[C@H](CCCNC(=N)N)C(N)=O [WCopW31] (H-[dW][dL][dV][dW][dI][dW][dR][dR][dQ][dR]-NH2)	–	–	–	0.35%	1.82%	6.88%
CC[C@@H](C)[C@@H](NC(=O)[C@@H](Cc1c[nH]c2ccccc12)NC(=O)[C@@H](Cc1ccc(O)cc1)NC(=O)[C@@H](CC(C)C)NC(=O)[C@H](N)Cc1c[nH]c2ccccc12)C(=O)N[C@H](CC(C)C)C(=O)N[C@H](CC(C)C)C(=O)N[C@H](CCCNC(=N)N)C(=O)N[C@H](CCCCN)C(=O)N[C@H](CCCCN)C(=O)N[C@H](CCCNC(=N)N)C(N)=O [WCopWYL] (H-[dW][dL][dY][dW][dI][dL][dL][dR][dK][dK][dR]-NH2)	–	–	–	2.50%	6.29%	9.62%
